Legend:
PARP = biological target: T1, PARP (Homo sapiens, UniProt P09874); assay: Measurement of PARP inhibitory activity (PARP Inhibition Assay kit, ADP-ribosylated histone); type: biochemical; settings: HSA PARP Enzyme, histone-coated plate, absorbance at 450 nm
T1 construct: purchased Travigen (Trevigen) 4669-96-K
Experimental: PARP activity is determined by measuring the amount of ADP-ribosylated histone protein applied onto an assay plate according to the manual of a measurement kit “PARP Inhibition Assay” (produced by Travigen, catalog number: 4669-96-K). Specifically, 25 μL/well of “2×PARP cocktail” (containing 800 μM of NAD, 50 μM of biotinylated NAD, and denatured DNA) was added to each well of assay plates (96-well multiplate) previously coated with histone protein. Further added was 12.5 μL/well of test compound diluted with “PARP Buffer” (50 mM Tris-hydrochloric acid buffer (pH 8.0) containing 25 mM of MgCl2) and 12.5 μL/well (final concentration: 0.3 unit/50 μL/well) of “HSA PARP Enzyme” diluted with “PARP Buffer” in that order. The mixture was allowed to react at room temperature for 30 minutes. Enzyme reaction of PARP was suspended by discarding the reaction solution and rinsing with a phosphate buffer. Then, 50 μL/well of “Strep-HRP” (streptavidin-labeled horseradish peroxidase) was added and allowed to react at 37° C. for 20 to 30 minutes to bind to biotin-labeled ADP-ribosylated histone. After the reaction solution was discarded, resultings were rinsed with a phosphate buffer, and 50 μL/well of calorimetric substrate TACS-Sapphire was added to the mixture to react at room temperature for 5 to 10 minutes in the dark.
The reaction was terminated by adding 50 μL/well of 0.2 N hydrochloric acid solution, and the absorbance at 450 nm was measured with a microplate reader.

U937 cells = assay: Inhibitory effect against active oxygen-induced cell injury with U937 cells; type: cell-based; settings: propidium iodide fluorescence
Experimental: U937 cells were suspended in RPMI 1640 without serum, and were seeded at a concentration of 1×10^4 cells/50 μL/well in a solid assay plate (produced by Corning, black, tissue culture treated, Type: 3916). After adding 1 μL/well of test compound solution in DMSO, 50 μL/well of 20 mM hydrogen peroxide solution was added, followed by incubation at 37° C. for 3 hours in an atmosphere of 5% CO2. Then, 2 μL/well of 1.5 mM propidium iodide solution was added and incubation was further carried out at 37° C. for 1 hour. The fluorescence was measured with a fluorescence plate reader ARVO (excitation wavelength: 530 nm, fluorescence wavelength: 620 nm) to investigate hydrogen peroxide solution-induced necrosis inhibition.

[1] = Homo sapiens, U-937, hydrogen peroxide-induced necrosis

T1 sequence (P09874 whole entry): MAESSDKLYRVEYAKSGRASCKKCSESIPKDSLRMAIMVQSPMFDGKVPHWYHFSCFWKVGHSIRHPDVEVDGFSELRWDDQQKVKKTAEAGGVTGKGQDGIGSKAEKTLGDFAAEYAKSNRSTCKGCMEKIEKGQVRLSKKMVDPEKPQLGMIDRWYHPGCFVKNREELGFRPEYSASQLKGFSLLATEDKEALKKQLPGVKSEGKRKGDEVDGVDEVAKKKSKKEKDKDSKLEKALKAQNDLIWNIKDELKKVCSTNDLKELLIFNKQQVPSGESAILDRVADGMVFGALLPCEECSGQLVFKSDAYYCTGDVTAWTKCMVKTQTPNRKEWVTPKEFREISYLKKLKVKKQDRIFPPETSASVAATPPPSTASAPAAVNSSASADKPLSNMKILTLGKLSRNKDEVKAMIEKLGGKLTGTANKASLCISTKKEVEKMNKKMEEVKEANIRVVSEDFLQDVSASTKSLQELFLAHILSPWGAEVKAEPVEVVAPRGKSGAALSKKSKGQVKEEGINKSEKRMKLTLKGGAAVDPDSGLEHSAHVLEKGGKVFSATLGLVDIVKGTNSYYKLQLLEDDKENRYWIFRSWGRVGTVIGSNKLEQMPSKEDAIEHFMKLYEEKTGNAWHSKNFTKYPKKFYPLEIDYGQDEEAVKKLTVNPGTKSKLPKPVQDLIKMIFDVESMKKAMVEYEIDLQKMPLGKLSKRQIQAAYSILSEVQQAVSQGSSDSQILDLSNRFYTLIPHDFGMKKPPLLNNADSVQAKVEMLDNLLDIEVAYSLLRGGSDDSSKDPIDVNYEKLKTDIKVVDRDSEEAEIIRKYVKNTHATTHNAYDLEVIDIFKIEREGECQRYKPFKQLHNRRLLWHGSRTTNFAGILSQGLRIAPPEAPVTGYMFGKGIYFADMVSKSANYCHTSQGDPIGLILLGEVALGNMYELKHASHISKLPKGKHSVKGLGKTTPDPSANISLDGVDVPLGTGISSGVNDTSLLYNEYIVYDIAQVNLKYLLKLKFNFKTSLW

Row | Compound | IC50 (PARP) [µM] | melting point [°C] | IC50 (U937 cells; [1]) [µM] | IC50 (U937 cells; hydrogen peroxide-induced necrosis) [µM]
1 | N[C@H]1CCN2c3c(cccc31)C(=O)N[C@@H]2c1ccc(OCCO)cc1 (racemic) [Example 93, Mixture of (3S,7S)-7-amino-3-(4-hydroxyethoxyphenyl)-6,7-dihydro-3H,5H-pyrido[3,2,1-ij]quinazoline-1(2H)-one and (3R,7R)-7-amino-3-(4-hydroxyethoxyphenyl)-6,7-dihydro-3H,5H-pyrido[3,2,1-ij]quinazoline-1(2H)-one] | 0.006 | 96.8 to 97.6 |  | 
2 | COc1ccc([C@H]2NC(=O)c3cccc4c3N2CC[C@@H]4N)cc1F (racemic) [Example 99, Mixture of (3S,7S)-7-amino-3-(3-fluoro-4-methoxyphenyl)-6,7-dihydro-3H,5H-pyrido[3,2,1-ij]quinazoline-1(2H)-one and (3R,7R)-7-amino-3-(3-fluoro-4-methoxyphenyl)-6,7-dihydro-3H,5H-pyrido[3,2,1-ij]quinazoline-1(2H)-one] | 0.042 | 128.5 to 137.4 |  | 
3 | N[C@H]1CCN2c3c(cccc31)C(=O)N[C@@H]2c1cccnc1 (racemic) [Example 100, Mixture of (3S,7S)-7-amino-3-(3-pyridyl)-6,7-dihydro-3H,5H-pyrido[3,2,1-ij]quinazoline-1(2H)-one and (3R,7R)-7-amino-3-(3-pyridyl)-6,7-dihydro-3H,5H-pyrido[3,2,1-ij]quinazoline-1(2H)-one] | 0.17 | 127 to 131.2 |  | 
4 | CN(C)c1ccc([C@@H]2NC(=O)c3cccc4c3N2CC[C@@H]4N)cc1 (racemic) [Example 129, Mixture of (3R,7S)-7-amino-3-(4-N,N-dimethylaminophenyl)-6,7-dihydro-3H,5H-pyrido[3,2,1-ij]quinazoline-1(2H)-one and (3S,7R)-7-amino-3-(4-N,N-dimethylaminophenyl)-6,7-dihydro-3H,5H-pyrido[3,2,1-ij]quinazoline-1(2H)-one] | 0.049 | 237.8 to 239.7 |  | 
5 | COc1ccc(C2NC(=O)c3cccc4c3N2CCC4N)cc1 (stereo not drawn) [Example 4, 7-amino-3-(4-methoxyphenyl)-6,7-dihydro-3H,5H-pyrido[3,2,1-ij]quinazolinone-1(2H)-one] | 0.058 | 139.7 to 145.9 | 0.61 | 
6 | O=C1CCN2c3c1cccc3C(=O)NC2c1ccc([N+](=O)[O-])cc1 (stereo not drawn) [Example 17, 3-(4-nitrophenyl)-6,7-dihydro-3H,5H-pyrido[3,2,1-ij]quinazoline-1,7(2H)-dione] | 0.24 | 198.8 to 209.3 | 1.2 | 
7 | COc1ccc(C2NC(=O)c3cccc4c3N2CCC4=NO)cc1F (stereo not drawn) [Example 66, 3-(3-fluoro-4-methoxyphenyl)-7-hydroxyimino-6,7-dihydro-3H,5H-pyrido[3,2,1-ij]quinazoline-1(2H)-one] |  | 260.3 to 261.6 | 1.7 | 
8 | O=C1NC(c2ccc(F)cc2)N2CCC(=NO)c3cccc1c32 (stereo not drawn) [Example 76, 3-(4-fluorophenyl)-7-hydroxyimino-6,7-dihydro-3H,5H-pyrido[3,2,1-ij]quinazoline-1(2H)-one] |  | 247.1 to 252.3 |  | 
9 | Cc1ccc(C2NC(=O)c3cccc4c3N2CCC4=NO)cc1 (stereo not drawn) [Example 77, 7-hydroxyimino-3-(4-methylphenyl)-6,7-dihydro-3H,5H-pyrido[3,2,1-ij]quinazoline-1(2H)-one] |  | 215.4 to 219 |  | 
10 | O=C1NC(c2ccc(Cl)cc2)N2CCC(=NO)c3cccc1c32 (stereo not drawn) [Example 78] |  | 210.6 to 217.2 |  | 
11 | O=C1NC(c2ccc(Br)cc2)N2CCC(=NO)c3cccc1c32 (stereo not drawn) [Example 79, 3-(4-bromophenyl)-7-hydroxyimino-6,7-dihydro-3H,5H-pyrido[3,2,1-ij]quinazoline-1(2H)-one] |  | 230 to 236.9 |  | 
12 | COc1ccc(C2NC(=O)c3cccc4c3N2CCC4)cc1 (stereo not drawn) [Example 103, 3-(4-methoxyphenyl)-6,7-dihydro-3H,5H-pyrido[3,2,1-ij]quinazoline-1(2H)-one] |  | 143.3 to 154.6 |  | 
13 | NC1CCN2c3c(cccc31)C(=O)NC2c1ccc(C(=O)O)cc1 (stereo not drawn) [Example 127, 7-amino-3-(4-carboxyphenyl)-6,7-dihydro-3H,5H-pyrido[3,2,1-ij]quinazolinone-1-(2H)-one] |  | 232.3 to 238.7 |  | 
14 | COc1ccc(C2NC(=O)c3cccc4c3N2CCC4NC(=O)c2ccc(N(C)C)cc2)cc1 (stereo not drawn) [Example 132, 7-(4-N,N-dimethylamino)benzoylamino-3-(4-methoxyphenyl)-6,7-dihydro-3H,5H-pyrido[3,2,1-ij]quinazoline-1(2H)-one] |  | 201.4 to 202.9 |  | 
15 | COc1ccc(C2NC(=O)c3cccc4c3N2CCC4NC(=O)CCN2CCCCC2)cc1 (stereo not drawn) [Example 133, 7-[3-(piperidine-1-yl)propanoyl]amino-3-(4-methoxyphenyl)-6,7-dihydro-3H,5H-pyrido[3,2,1-ij]quinazoline-1(2H)-one] |  | 186 to 187.2 |  | 
16 | COc1ccc(C2NC(=O)c3cccc4c3N2CCC4NC(=O)C2CCN(C)CC2)cc1 (stereo not drawn) [Example 134, 7-(1-methylpiperidine-4-yl)carbonylamino-3-(4-methoxy-phenyl)-6,7-dihydro-3H,5H-pyrido[3,2,1-ij]quinazoline-1(2H)-one] |  | 252.3 to 253.1 |  | 
17 | COc1ccc(C2NC(=O)c3cccc4c3N2CCC4N(C)C)cc1 (stereo not drawn) [Example 135, 7-dimethylamino-3-(4-methoxyphenyl)-6,7-dihydro-3H,5H-pyrido[3,2,1-ij]quinazoline-1(2H)-one] |  | 188.2 to 192.4 |  | 
18 | COc1ccc(C2NC(=O)c3cccc4c3N2CCC4NC(=O)CN(C)C)cc1 (stereo not drawn) [Example 136, 7-(N,N-dimethylaminoacetyl)amino-3-(4-methoxyphenyl)-6,7-dihydro-3H,5H-pyrido[3,2,1-ij]quinazoline-1(2H)-one] |  | 161.4 to 166.6 |  | 
19 | Mixture of (3S,7S)-7-amino-3-(3,4-difluorophenyl)-6,7-dihydro-3H,5H-pyrido[3,2,1-ij]quinazoline-1(2H)-one and (3R,7R)-7-amino-3-(3,4-difluorophenyl)-6,7-dihydro-3H,5H-pyrido[3,2,1-ij]quinazoline-1(2H)-one [Example 122] | 0.12 |  |  | 
20 | Mixture of (3S,7S)-7-amino-3-(4-bromophenyl)-6,7-dihydro-3H,5H-pyrido[3,2,1-ij]quinazoline-1(2H)-one and (3R,7R)-7-amino-3-(4-bromophenyl)-6,7-dihydro-3H,5H-pyrido[3,2,1-ij]quinazoline-1(2H)-one [Example 123] | 0.11 |  |  | 0.3

Source: patent US20060004028A1, “Novel PARP inhibitor” (MOCHIDA PHARMACEUTICAL CO., LTD., priority 2002, published 2006)
